# Source: patent US8609870B2, “Treating various disorders using TrkB agonists” (Emory University, priority 2008, dated 2013)
# pKd: −log10 of the molar value.
# Legend:
# [1] = target: TrkB extra-cellular domain (ECD) (Homo sapiens, UniProt Q16620); assay: [3H]-deoxygedunin ligand binding assay, TrkB ECD (Scatchard plot)
# Description: Purified TrkB ECD or ICD proteins (10 μg/each) were incubated with different [^3H-deoxygedunin] in 1 ml binding buffer (0.05 M Na/K phosphate buffer (pH 7.1), 200 mM NaCl) (1 nM [^3H]deoxygedunin˜82300 cpm) at 4° C. for 10 minutes. After incubation, the reaction mixture was loaded on filter paper and washed with 3×5 ml Tris buffer (100 mM Tris, pH 7.1). The dried filter paper was put into a small vial and subjected to liquid scintillation counter analysis. The value of the dissociation constant and the number of sites were obtained from Scatchard plots by using the equation r/[L]free=n/Kd−r/Kd, where r is the ratio of the concentration of bound ligand to the total protein concentration and n is the number of binding sites.
# To determine whether an identified active compound physically and directly binds to the TrkB receptor, in vitro binding assays can be conducted with purified TrkB extracellular domain (ECD) and intracellular domain (ICD) recombinant proteins. Purified TrkB ECD and ICD (10 μg of each) are incubated with different concentrations of ^3H-labeled identified active compound in 1 ml of binding buffer (0.05M Na/K phosphate buffer, pH 7.1, 200 mM NaCl) at 4° C. for 10 minutes. After the incubation, the reaction mixture is loaded on filter paper. The mixture is washed three times with Tris buffer (100 mM Tris, pH 7.1), and the dried filter paper is put into a small vial and subjected to liquid scintillation counter analysis. […] The value of the dissociate constant and the number of sites will then be obtained from Scatchard plots using the equation r/[L]free=n/Kd−r/Kd, where r is the ratio of the concentration of bound ligand to the total protein concentration and n is the number of binding sites.
# To determine whether deoxygedunin binds the intra-cellular domain (ICD) or extra-cellular domain (ECD) of the TrkB receptor, ligand binding assays with [^3H]-deoxygedunin were performed. […] The coprecipitated HA-TrkB was also prominently tyrosine phosphorylated (see FIG. 14, 3rd panel).
# TrkB F616A knockin mice = assay: KA-provoked apoptosis (caspase-3) in TrkB F616A knockin mice; type: in vivo, mouse; conditions: TrkB F616A mice, without 1NMPP1
# Description: To determine if 1NMPP1 makes neurons treated with an identified active compound vulnerable to KA-provoked neuronal cell death, TrkF616A knockin mice are fed with 1NMPP1 (25 mM) in drinking water one day prior to pharmacological reagent treatment. The next day, the mice are intraperitoneally injected with KA (25 mg/kg), or an identified active compound (5 mg/kg) 4 hours prior to KA injection. The control mice are injected with either KA or an identified active compound alone, or the mice are administered an identified active compound 4 hours before KA. After 4 days, the mice are sacrificed and the brains are homogenized and ultracentrifuged. The supernatant then is employed for SDS-PAGE and immunoblotting analysis.
# […] inversely correlated with TrkB activation by deoxygedunin (FIG. 20, top and middle panels).
# BDNF −/− pups = assay: Vestibular ganglion loss in BDNF −/− pups; type: in vivo, mouse
# Description: The cochleae of various drug-treated pups (P1 or P2 BDNF +/+ and −/− pups) were first fixed through cardioperfusion of 4% paraformaldehyde (in PBS). Each cochlea was dissected out and postfixed in 1% osmium for one hour at room temperature. Samples were decalcified in 0.35 M EDTA (pH 7.5, in PBS) for 72 hours at 4° C., followed by gradual dehydration in graded alcohols, infiltrated, and embedded in epoxy resin with the conventional protocols. Consecutive cochlear sections (5 μm in thickness) were cut with a microtome (Microm HM335E, GmbH) along the axis of the modiolus. Sections were stained with toluidine blue. Vestibular ganglions were identified by their location in the auditory internal meatus with the basal cochlear turn and the cochlear modiolus as morphological reference landmarks.
# To examine whether deoxygedunin activating TrkB involved endogenous BDNF, BDNF conditional knockout mice with BDNF gene deletion limited to cortex (thus allowing normal development) were used. Deoxygedunin (5 mg/kg) was intraperitoneally injected into the BDNF cortex conditional knockout mice and the mice were sacrificed at 4 hours. […] Mutant mice lacking BDNF were known to have severe deficiencies in coordination and balance, which have been associated with excessive degeneration in several sensory ganglia including the vestibular ganglion (Ernfors et al., Nature 368, 147-150 (1994)). To determine whether deoxygedunin rescued this loss of vestibular ganglions in BDNF −/− pups, conventional BDNF +/− mice were bred with the same genotype mice. Deoxygedunin (5 mg/kg, i.p.) was administered to the pregnant mice at day E7.5 until birth.
# TrkB extra-cellular domain (ECD), sequence (Q16620 32-430 limits assumed): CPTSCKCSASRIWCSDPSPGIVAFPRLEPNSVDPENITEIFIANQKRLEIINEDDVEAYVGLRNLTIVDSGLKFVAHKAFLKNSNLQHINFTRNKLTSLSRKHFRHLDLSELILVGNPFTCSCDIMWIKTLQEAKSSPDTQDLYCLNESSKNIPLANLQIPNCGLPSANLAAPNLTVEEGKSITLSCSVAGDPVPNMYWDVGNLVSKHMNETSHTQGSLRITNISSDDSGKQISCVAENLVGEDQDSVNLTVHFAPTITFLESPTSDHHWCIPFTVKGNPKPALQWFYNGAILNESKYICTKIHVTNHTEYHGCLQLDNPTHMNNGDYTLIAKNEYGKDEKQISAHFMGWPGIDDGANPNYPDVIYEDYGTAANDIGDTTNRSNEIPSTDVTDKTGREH
smiles,measurement,setting,value
CC(=O)O[C@@H]1C[C@H]2C(C)(C)C(=O)C=C[C@]2(C)[C@H]2CC[C@]3(C)C(=CC(=O)O[C@H]3c3ccoc3)[C@@]21C [deoxygedunin],pKd,"[1]; Scatchard plot analysis, read-out: binding constant Kd",5.85
same,major binding site in TrkB ECD (truncation assays),[1]; TrkB ECD truncation mutants,Ig2 domain
same,KA-provoked apoptosis,TrkB F616A knockin mice,suppressed KA-provoked apoptosis
same,vestibular ganglia in stained inner ear sections,"BDNF −/− pups; BDNF mutant pups, 5 mg/kg i.p.",displayed intact vestibular ganglia
same,vestibular ganglia detected (quantitative analysis),"BDNF −/− pups; BDNF −/− pups, 5 mg/kg i.p. to pregnant mice from E7.5 and to pups",42.2±6.3%
same,survival of BDNF −/− pups under treatment,BDNF −/− pups; neonatal pups receiving 5 mg/kg deoxygedunin,continued dying at P1 or P2
